What was measured:
[1] = molecular target: T1, RORα (Homo sapiens, UniProt P35398); assay: Gal4-RORα LBD / UAS luciferase cotransfection assay; type: cell-based; conditions: Gal4 chimeric cotransfection
T1 construct: expressed in transfected cells; host or cells: HEK293T
T1 sequence (P35398 272-510 limits assumed): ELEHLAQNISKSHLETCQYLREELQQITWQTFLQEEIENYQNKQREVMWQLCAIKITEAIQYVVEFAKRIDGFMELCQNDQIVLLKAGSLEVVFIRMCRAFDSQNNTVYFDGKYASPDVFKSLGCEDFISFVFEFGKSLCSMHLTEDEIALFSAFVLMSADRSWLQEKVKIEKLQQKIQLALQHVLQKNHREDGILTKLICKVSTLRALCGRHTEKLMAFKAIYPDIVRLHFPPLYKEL
Experimental: (§1) The cells were treated with either DMSO or various compounds as indicated four hours after replating. Following additional 20 hour incubation, luciferase levels were assayed by one-step addition of 20 μL BriteLite (Perkin Elmer) and read using an Envision multilabel plate reader (Perkin Elmer).
Cotransfection assays were performed as previously described in HEK293 cells (Gal4 cotransfection assay or IL-17 luciferase reporter)[8]. HEK293 and the mouse lymphoma EL4 (ATCC) cells were maintained in DMEM supplemented with 10% FBS plus antibiotics (penicillin and streptomycin; Invitrogen).

[2] = tested on: VP16; assay: Gal4 DBD-VP16 / UAS luciferase control assay; type: cell-based
Experimental: as §1

[3] = tested on: EL-4 cells; assay: Intracellular IL-17 in PMA/ionomycin stimulated EL-4 cells (flow cytometry); type: cell-based, murine; conditions: 5 μM, compared to vehicle treated cells
Experimental: The treatment of EL4 with SR2211 repressed the Il17 gene expression to a greater extent as compared to digoxin. […] In order to measure the effect of SR2211 on IL-17 production, we determined the intracellular levels of IL-17 using flow cytometry. After the stimulation of EL-4 cells with PMA/ionomycin for 3 hr, the cells were treated with BD GolgiPlug™ (protein transport inhibitor) to allow intracellular accumulation of cytokines. After 2 hr, the cells were fixed and stained to analyze the IL-17 by flow cytometry.
For intracellular cytokine staining, cells were stimulated with PMA (50 ng/Ml) and lonomycin (1 ug/ml) for 5 hrs. After 3 hrs of incubation, BD Golgiplug (BD Bioscience) was added and incubated for 2 hrs. Then, cells were fixed, permeabilized, and stained with PEIL17A Ab (BD Biosciences). Cell sorting was performed using LSRII (BD Biosciences). • 1. Ivanov, I I; McKenzie, B. S.; Zhou, L.; Tadokoro, C. E.; Lepelley, A.; Lafaille, J. J.; Cua, D. J.; Littman, D. R. (2006) The orphan nuclear receptor RORgammat directs the differentiation program of proinflammatory IL-17+ T helper cells. Cell 126, 1121-1133. • 2. Nakae, S.; Nambu, A.; Sudo. K.; Iwakura. Y. (2003) Suppression of immune induction of collagen-induced arthritis in IL-17-deficient mice. J Immunol 171, 6173-6177. • 3. Jetten. […]

With `OC(c1ccc(-c2ccc(CN3CCN(Cc4ccncc4)CC3)cc2)c(F)c1)(C(F)(F)F)C(F)(F)F` [SR2211, 1,1,1,3,3,3-hexafluoro-2-(2-fluoro-4′-((4-(pyridin-4-ylmethyl)piperazin-1-yl)methyl)-[1,1′-biphenyl]-4-yl)propan-2-ol] the “effect on transcriptional activity of RORα” value [1] was “did not have any impact on the transcriptional activity of RORα”, the “luciferase activity of Gal4 DBD-VP16 (off-target effects/toxicity)” value [2] was “no change in the luciferase activity of Gal4 DBD-VP16” and the IL-17 intracellular staining [3] was “significant inhibition of IL-17 intracellular staining”.

Source: patent US9586928B2 (The Scripps Research Institute, priority 2011, dated 2017)
